# Reference: publication PMC12718081 (ACS Infectious Diseases, 2025)
# Entries after “also recorded” stand apart in the source; their conditions may differ. Like-named read-outs stand apart in the source and are kept apart here.
# Assays:
# [1] = system: Sm.TRPMPZQ; test: Ca2+ reporter assay in antagonist mode (block of PZQ activation of Sm.TRPMPZQ); format: cell-based, Schistosoma mansoni; details: preincubation 1 nM-100 μM for 10 min, data not shown
# Protocol: (§1) The Ca^2+ reporter assay was performed using a Fluorescence Imaging Plate Reader (FLIPR) system, as described in the Supporting Information.
# (§2) Adult worm ex-vivo high-content assay
# (§3) “Area” and “False Negative Rate” from the MeasureObjectSizeShape and MeasureObjectOverlap modules, respectively. These measurements were then modeled by a multilevel generalized linear statistical model. The effects of the experimental treatments on […]
# (§4) The half-maximal inhibitory
# (§5) Windows (GraphPad Software, Boston, MA, USA; www.graphpad.com). […]
# (§6) with DMSO as a negative control. […]
# (§7) reader. […] The fluorescence
# (§8) Untransfected HEK293 cells were used as a control.
# (§9) 10% fetal bovine serum (FBS). […]
# (§10) atmosphere containing 5% CO₂. Following incubation, the growth medium was removed and […]
# buffer containing 2.5 mM probenecid in HBSS (with Ca²⁺ and Mg²⁺), 20 mM HEPES, 0.3% BSA (Sigma, A7030), and 0.03% L-ascorbic acid (Sigma). Cells were incubated for 40 minutes at 37 °C and subsequently for 20 minutes at room temperature. A total of seven PZQ derivatives were tested, using racemic PZQ included as a positive control on each assay plate. Drug dilutions were prepared in assay buffer without dye and probenecid and dispensed into separate flat-bottom 384-well plates. Calcium flux measurements were performed at room temperature using a […]
# (§11) instrument (Molecular Devices). Baseline fluorescence was recorded for 20 seconds, followed by the addition of 5 µL of each drug solution, after which fluorescence was measured continuously for 250 seconds. […]
# schistosomula after 72h of incubation using the Roboworm high-content screening assay. Auranofin (AUR) was included at 10 µM as positive control. DMSO was included as a negative control. Compounds were considered hits if both their motility and phenotype scores were lower than -0.35 and -0.15, respectively (region delimited by the […]
# (1 picture or pasted object on this page, not shown here)
# [2] = system: Sm.TRPMPZQ L1515A mutant; test: Ca2+ reporter activation assay, Sm.TRPMPZQ point mutant L1515A; format: cell-based, Schistosoma mansoni; details: 100 μM
# Protocol: This trend likely indicates a similar binding mode.
# The colored cells represent the range of EC50 values for each compound based on their ability to activate the channel.
# as §1, §2, §3, §4, §5, §6, §7, §8, §9, §10
# (§12) buffer containing 2.5 mM probenecid in HBSS (with Ca²⁺ and Mg²⁺), 20 mM HEPES, 0.3% BSA (Sigma, A7030), and 0.03% L-ascorbic acid (Sigma). Cells were incubated for 40 minutes at 37 °C and subsequently for 20 minutes at room temperature. […]
# as §11
# [3] = system: S. mansoni schistosomula; test: Roboworm high-content screening assay on schistosomula (motility and phenotype scores); format: cell-based, Schistosoma mansoni; details: 72 h
# Protocol: All PZQ derivatives were synthesized in the racemic form and evaluated as such. The compounds were initially screened at 10 μM against S. mansoni schistosomula using the Roboworm high-content screening assay , and were declared hits or nonhits based on their effect on parasites’ motility and phenotype scores after 72 h of incubation. As none of the compounds were considered hits at this concentration, we performed a titration from 6.25 to 50 μM (Figure S27).
# DMSO was included as a negative control. Compounds were considered hits if both their motility and phenotype scores were lower than −0.35 and −0.15, respectively (region delimited by the dashed lines). In red, PZQ analogues selected for further analysis.
# For the collection of schistosomula, B. glabrata snails infected with S. mansoni were shed for 2 h under light at 26 °C. Cercariae were collected, mechanically transformed into schistosomula as previously described.
# DMSO (0.625%, v/v) was included as a negative control. Z′ values for the assay were calculated to be 0.542 for phenotype and 0.361 for motility. […]
# Auranofin (AUR) was included at 10 µM as positive control. DMSO was included as a negative control. Compounds were considered hits if both their motility and phenotype scores were lower than -0.35 and -0.15, respectively (region delimited by the […]
# [4] = biological target: Eg.TRPMPZQ (Echinococcus granulosus, UniProt W6UVV9); test: cell-based; details: HEK293, Ca2+ reporter, mean ± standard deviation; read-out: Bmax, Eg.TRPMPZQ activation
# Sequence of Eg.TRPMPZQ (W6UVV9 entry or part of it): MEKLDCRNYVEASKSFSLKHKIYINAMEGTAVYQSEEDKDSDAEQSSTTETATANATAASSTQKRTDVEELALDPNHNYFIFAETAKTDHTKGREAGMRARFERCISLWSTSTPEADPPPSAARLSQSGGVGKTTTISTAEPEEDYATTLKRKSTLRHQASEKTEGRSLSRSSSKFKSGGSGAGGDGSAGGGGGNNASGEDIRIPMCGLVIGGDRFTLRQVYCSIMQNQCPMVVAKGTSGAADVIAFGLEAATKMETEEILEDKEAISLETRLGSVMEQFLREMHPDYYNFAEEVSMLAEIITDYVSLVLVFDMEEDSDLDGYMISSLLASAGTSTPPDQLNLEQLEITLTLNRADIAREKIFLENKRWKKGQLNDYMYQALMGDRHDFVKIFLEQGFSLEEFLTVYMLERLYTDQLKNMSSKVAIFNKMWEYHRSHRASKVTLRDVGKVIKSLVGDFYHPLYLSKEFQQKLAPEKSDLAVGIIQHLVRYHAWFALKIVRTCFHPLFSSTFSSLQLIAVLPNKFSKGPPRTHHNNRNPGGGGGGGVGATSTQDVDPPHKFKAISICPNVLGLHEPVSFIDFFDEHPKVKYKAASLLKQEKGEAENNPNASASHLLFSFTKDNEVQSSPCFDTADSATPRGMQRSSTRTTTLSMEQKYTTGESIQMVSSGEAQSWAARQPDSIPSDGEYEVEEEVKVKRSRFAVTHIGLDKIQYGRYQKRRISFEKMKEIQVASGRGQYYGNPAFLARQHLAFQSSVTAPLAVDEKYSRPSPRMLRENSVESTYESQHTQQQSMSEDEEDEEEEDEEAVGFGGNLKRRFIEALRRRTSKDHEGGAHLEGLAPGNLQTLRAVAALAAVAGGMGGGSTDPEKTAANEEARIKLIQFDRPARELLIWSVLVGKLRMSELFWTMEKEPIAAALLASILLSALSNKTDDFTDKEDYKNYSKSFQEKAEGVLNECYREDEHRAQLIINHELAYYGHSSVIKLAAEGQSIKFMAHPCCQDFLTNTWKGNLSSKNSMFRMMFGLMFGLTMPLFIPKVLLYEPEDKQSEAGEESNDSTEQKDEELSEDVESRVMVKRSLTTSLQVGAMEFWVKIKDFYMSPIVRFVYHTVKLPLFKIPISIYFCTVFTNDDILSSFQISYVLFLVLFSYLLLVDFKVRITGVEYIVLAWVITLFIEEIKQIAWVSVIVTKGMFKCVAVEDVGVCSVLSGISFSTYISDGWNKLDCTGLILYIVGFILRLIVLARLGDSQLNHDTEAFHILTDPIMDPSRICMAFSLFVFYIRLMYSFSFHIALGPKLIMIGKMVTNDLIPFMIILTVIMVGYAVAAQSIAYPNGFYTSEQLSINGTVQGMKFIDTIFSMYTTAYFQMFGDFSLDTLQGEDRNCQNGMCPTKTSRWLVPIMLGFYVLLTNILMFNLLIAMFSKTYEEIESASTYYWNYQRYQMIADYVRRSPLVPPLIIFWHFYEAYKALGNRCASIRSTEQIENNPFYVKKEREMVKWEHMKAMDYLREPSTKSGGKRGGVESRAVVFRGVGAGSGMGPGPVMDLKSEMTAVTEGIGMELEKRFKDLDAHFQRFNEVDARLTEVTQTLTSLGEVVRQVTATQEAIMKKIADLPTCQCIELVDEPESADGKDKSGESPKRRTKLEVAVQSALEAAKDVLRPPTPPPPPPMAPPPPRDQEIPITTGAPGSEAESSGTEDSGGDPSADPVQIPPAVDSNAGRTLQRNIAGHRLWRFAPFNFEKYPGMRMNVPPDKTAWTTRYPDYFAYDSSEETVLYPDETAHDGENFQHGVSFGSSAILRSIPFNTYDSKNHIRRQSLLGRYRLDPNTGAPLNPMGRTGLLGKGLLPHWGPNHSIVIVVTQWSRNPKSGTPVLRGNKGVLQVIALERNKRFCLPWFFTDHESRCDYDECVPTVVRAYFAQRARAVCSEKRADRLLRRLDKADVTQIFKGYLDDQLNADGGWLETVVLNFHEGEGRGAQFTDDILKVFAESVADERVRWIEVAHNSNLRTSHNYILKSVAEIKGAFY
# [5] = system: adult schistosomes (male and female worms); test: Adult worm ex vivo high-content image-based motility assay; format: cell-based, Schistosoma mansoni
# Protocol: Adult schistosomes’ motility was determined using a high-content assay previously developed by our group, , with images analyzed in CellProfiler software. More details are provided in the Supporting Information.
# as §2, §3, §4, §5
# with DMSO as a negative control.
# [6] = biological target: Sm.TRPMPZQ (wild-type) (Schistosoma mansoni, UniProt A0A5K4F0X5); test: Ca2+ reporter (FLIPR) activation assay, wild-type Sm.TRPMPZQ in HEK293 cells; format: cell-based
# Sequence of Sm.TRPMPZQ (wild-type) (A0A5K4F0X5 entry or part of it): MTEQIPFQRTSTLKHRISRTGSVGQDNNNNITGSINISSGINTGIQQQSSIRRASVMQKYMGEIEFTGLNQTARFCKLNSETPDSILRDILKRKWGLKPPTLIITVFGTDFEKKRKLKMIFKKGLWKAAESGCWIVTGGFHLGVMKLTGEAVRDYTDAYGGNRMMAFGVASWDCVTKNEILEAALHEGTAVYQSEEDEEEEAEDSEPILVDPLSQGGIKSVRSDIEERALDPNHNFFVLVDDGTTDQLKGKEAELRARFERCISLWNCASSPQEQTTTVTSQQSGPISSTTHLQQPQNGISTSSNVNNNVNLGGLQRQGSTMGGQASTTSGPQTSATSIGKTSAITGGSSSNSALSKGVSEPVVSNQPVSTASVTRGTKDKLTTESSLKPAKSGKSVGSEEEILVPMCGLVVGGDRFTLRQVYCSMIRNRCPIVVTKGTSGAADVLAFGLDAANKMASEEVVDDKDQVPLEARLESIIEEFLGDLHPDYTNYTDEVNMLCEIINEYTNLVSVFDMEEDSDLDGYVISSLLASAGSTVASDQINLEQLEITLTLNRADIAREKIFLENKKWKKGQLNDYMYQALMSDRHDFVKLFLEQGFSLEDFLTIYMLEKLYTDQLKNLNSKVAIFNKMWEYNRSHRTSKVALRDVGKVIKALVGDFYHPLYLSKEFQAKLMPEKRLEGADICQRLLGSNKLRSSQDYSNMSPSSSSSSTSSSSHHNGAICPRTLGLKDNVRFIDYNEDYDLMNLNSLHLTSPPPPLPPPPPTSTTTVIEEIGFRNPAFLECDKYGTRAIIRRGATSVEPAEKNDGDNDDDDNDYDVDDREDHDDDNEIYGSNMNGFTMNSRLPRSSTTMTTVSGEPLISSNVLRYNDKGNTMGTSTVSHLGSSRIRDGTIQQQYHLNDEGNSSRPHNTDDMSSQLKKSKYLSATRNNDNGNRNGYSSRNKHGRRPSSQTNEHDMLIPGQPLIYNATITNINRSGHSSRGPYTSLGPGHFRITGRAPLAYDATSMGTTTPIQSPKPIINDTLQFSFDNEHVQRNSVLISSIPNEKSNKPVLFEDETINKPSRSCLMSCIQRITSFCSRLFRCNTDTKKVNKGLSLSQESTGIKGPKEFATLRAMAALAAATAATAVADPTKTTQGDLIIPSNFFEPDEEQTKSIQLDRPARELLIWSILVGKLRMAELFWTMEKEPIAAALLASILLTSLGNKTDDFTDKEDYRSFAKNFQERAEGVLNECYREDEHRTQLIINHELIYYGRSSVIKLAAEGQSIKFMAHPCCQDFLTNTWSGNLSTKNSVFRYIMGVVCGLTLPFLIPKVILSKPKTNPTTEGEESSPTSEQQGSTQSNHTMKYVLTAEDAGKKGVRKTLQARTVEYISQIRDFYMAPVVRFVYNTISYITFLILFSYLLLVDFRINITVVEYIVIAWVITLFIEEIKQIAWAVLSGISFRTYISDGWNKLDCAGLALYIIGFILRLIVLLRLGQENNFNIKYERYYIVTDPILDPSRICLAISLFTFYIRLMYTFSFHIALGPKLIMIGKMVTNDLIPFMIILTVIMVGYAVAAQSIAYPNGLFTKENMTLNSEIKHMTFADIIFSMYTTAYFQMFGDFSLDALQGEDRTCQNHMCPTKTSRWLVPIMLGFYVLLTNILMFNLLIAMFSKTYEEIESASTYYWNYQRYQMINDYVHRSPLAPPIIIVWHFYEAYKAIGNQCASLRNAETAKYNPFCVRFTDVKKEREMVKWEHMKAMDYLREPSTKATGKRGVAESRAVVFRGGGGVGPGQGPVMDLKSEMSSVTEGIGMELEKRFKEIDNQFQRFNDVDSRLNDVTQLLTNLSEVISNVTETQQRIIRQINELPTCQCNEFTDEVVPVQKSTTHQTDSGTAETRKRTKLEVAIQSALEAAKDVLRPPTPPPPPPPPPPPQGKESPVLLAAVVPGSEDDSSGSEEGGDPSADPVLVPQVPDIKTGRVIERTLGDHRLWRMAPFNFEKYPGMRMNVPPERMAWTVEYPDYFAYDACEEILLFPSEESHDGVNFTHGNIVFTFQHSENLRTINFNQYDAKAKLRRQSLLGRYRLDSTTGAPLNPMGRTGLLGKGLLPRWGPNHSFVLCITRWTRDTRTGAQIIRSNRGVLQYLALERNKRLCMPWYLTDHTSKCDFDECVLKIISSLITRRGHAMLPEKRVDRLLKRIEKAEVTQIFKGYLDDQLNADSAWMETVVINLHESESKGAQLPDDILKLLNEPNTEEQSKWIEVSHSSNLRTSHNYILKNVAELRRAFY
# Protocol: The Ca^2+ reporter assay was performed using a Fluorescence Imaging Plate Reader (FLIPR) system, as described in the Supporting Information. […]
# as §4, §5, §6, §7, §8, §9, §10, §12
# prepared in assay buffer without dye and probenecid and dispensed into separate flat-bottom 384-well plates. Calcium flux measurements were performed at room temperature using a […]
# as §11
# [7] = system: Fh.TRPMPZQ; set-up: method as in number not given; details: background statement; ref number not given; cited from earlier work
# [8] = system: S. mansoni; set-up: method as in numbers not given; details: ref numbers not given, cited from earlier work
# [9] = system: juvenile schistosomes; test: Microscopy analysis of juvenile morphology and motility (viability score 0-3); details: 72 h
# [10] = system: juvenile schistosomes (21 days p.i.); test: XTT juvenile viability assay; format: cell-based, Schistosoma mansoni; details: 48 h
# [11] = system: Sm.TRPMMCLZ; set-up: method as in number not given; details: background statement; ref number not given; cited from earlier work
smiles,measurement,setting,value
O=C(C1CCCCC1)N1CC(=O)N2CCc3ccc(-n4cc(C5(O)CCCCC5)nn4)cc3C2C1 (stereo not drawn) [Compound 5d],block of PZQ activation of Sm.TRPMPZQ (antagonist mode),[1],failed to impact subsequent responses to PZQ
same,activation of Sm.TRPMPZQ mutant form L1515A,[2],activated
same,hit classification (motility and phenotype scores),"[3]; 50 μM, hit if motility < -0.35 and phenotype < -0.15",inactive
same,Emax,[4],94 ± 4.08%
same,activity against adult worms,[5]; data not shown,inactive
same,"Bmax, wild-type Sm.TRPMPZQ activation",[6],No activity
same,EC50 for wild-type Sm.TRPMPZQ activation,[6]; 0.001 to 100 μM,failed to activate; also recorded: No activity
"O=C(C1CCCCC1)N1CC(=O)N2CCc3ccccc3C2C1 (stereo not drawn) [PZQ, Praziquantel, reference compound]",activation of Fh.TRPMPZQ,[7],does not activate
same,in vitro potency against adult worms,[8]; S. mansoni adults,0.16 to 0.75 µM
same,in vitro potency against schistosomula,[8]; S. mansoni schistosomula,1.3 to 4.8 µM
same,number of juvenile worms with viability score 0,"[9]; 10 μM, Table S1",56
same,number of juvenile worms with viability score 1,"[9]; 10 μM, Table S1",12
same,number of juvenile worms with viability score 2,"[9]; 10 μM, Table S1",27
same,number of juvenile worms with viability score 3,"[9]; 10 μM, Table S1",14
same,viability at 10 µM,"[9]; Schistosoma mansoni, read-out: Relative frequency of viability score 3",12.8%
same,parasite metabolic activity compared to the DMSO control group (XTT),[10]; 100 μM,significantly decreased
same,viability at 100 µM,"[10]; Schistosoma mansoni, mean ± SD, read-out: juvenile worm viability (XTT, % residual viability)",71.5%
same,hit classification (motility and phenotype scores),[3]; 6.25 μM,not classified as a hit
same,activation of Sm.TRPMMCLZ,[11],does not activate
same,EC50,"[5]; Schistosoma mansoni, 0 h, male adult worms, 0 h (immediately after addition), single experiment or geometric mean, read-out: Male worm motility inhibition (EC50)",0.28 µM
same,EC50,"[5]; Schistosoma mansoni, 0 h, male, 0 h, individual experiments, read-out: Male worm motility inhibition (EC50), values of independent experiments",0.3 µM
same,EC50,"[5]; Schistosoma mansoni, 24 h, male adult worms, 24 h, single experiment or geometric mean, read-out: Male worm motility inhibition (EC50)",0.25 µM
same,EC50,"[5]; Schistosoma mansoni, 24 h, male, 24 h, individual experiments, read-out: Male worm motility inhibition (EC50), values of independent experiments",0.22 µM
same,EC50,"[5]; Schistosoma mansoni, 48 h, male adult worms, 48 h, single experiment or geometric mean, read-out: Male worm motility inhibition (EC50)",0.25 µM
same,EC50,"[5]; Schistosoma mansoni, 48 h, male, 48 h, individual experiments, read-out: Male worm motility inhibition (EC50), values of independent experiments",0.27 µM
same,EC50,"[5]; Schistosoma mansoni, 72 h, male adult worms, 72 h, single experiment or geometric mean, read-out: Male worm motility inhibition (EC50)",0.16 µM
same,EC50,"[5]; Schistosoma mansoni, 72 h, male, 72 h, individual experiments, read-out: Male worm motility inhibition (EC50), values of independent experiments",0.16 µM
same,EC50,"[5]; Schistosoma mansoni, male, 0-72 h, read-out: EC50 against male adult worms (motility), span over incubation times",~0.2 µM
same,EC50,"[5]; male, 48 h, individual experiments, listed as PZQ (1), read-out: Male worm motility inhibition (EC50), values of independent experiments",0.24 µM
same,EC50,"[5]; male, 72 h, individual experiments, listed as PZQ (1), read-out: Male worm motility inhibition (EC50), values of independent experiments",0.17 µM
